# Source: BindingDB's records for patent US20250268873 (XRAD Therapeutics, 2025)
# Tests used:
# [1] = target: T1, Phosphatidylinositol 4,5-bisphosphate 3-kinase catalytic subunit delta isoform (Homo sapiens, UniProt O00329); assay: PI3Kα and PI3Kδ Biochemical Assay
# T1 sequence (O00329 whole entry): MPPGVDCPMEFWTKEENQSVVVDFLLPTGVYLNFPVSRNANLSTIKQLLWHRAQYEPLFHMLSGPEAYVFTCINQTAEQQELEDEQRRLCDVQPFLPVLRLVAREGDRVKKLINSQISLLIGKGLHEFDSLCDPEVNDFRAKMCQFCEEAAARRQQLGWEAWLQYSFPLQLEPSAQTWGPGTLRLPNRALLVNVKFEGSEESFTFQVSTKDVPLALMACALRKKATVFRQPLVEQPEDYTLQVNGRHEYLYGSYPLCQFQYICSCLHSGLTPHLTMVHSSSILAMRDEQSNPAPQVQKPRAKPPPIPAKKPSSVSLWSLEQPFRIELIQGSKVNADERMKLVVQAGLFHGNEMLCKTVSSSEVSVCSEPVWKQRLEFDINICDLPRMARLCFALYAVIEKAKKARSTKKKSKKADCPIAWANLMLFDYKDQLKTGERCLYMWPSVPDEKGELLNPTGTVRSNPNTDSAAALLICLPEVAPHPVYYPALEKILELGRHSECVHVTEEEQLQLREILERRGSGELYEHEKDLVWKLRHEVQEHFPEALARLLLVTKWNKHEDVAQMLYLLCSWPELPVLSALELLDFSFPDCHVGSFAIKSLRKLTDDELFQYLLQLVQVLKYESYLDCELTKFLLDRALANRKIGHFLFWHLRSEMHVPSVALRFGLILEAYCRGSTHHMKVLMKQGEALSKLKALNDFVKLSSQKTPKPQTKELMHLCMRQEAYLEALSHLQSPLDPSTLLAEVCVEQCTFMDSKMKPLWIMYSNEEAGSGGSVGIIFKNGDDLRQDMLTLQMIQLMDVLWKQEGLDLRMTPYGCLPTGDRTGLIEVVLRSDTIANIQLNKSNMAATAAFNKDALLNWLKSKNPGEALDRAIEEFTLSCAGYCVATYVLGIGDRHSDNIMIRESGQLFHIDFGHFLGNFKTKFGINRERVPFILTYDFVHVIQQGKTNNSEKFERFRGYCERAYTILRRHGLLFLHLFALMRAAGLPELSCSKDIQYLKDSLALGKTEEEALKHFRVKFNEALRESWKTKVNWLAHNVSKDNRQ
# Procedure: (§1) PI3Kα and PI3Kδ Kinase reactions were performed in a 5 μL volume in low-volume 384-well plates. Typically, PerkinElmer model 6008280 plates were used. The 1× kinase reaction buffer consisted of 50 mM HEPES pH 7.5, 3 mM MgCl2, 0.03% CHAPS, 1 mM EGTA, 100 mM NaCl, and 2 mM DTT. PI3Kα (ThermoFisher, #PV4788; the final PI3Kα concentration: 120 ng/mL) or PI3Kδ enzyme solution (ThermoFisher, #PV6451; the final PI3Kδ concentration: 250 ng/mL) was added to the plate, compounds were serially diluted to the final maximal concentration of 100 nM (3 fold series dilution, a total of 10 doses), and the PIP2:3PS (the final concentration: 10 μg/mL) and ATP solution (the final ATP concentration: 10 μM) was added to the 384-well plate. The plate was incubated at 25° C. for 1 hour. ADP-Glo reagent buffer (5 μL) was added to each well. The plate was sealed and incubated for 40 min at 25° C. ADP-Glo detection buffer (10 μL) was added to each well, and the plate was incubated for 40 min at 25° C. and read on a plate reader configured for Luminescence.
# [2] = target: Phosphatidylinositol 4,5-bisphosphate 3-kinase catalytic subunit alpha isoform (Homo sapiens, UniProt P42336); assay: PI3Kα and PI3Kδ Biochemical Assay
# Procedure: as §1
# [3] = target: DNA-dependent protein kinase catalytic subunit (Homo sapiens, UniProt P78527); assay: DNA-PK Enzyme-Linked Immunosorbent Assay
# Procedure: On day one, a 96-well plate (ThermoFisher, Cat #: 442404) was coated with GST-p53 (1-101) peptide (purified by Pharmaron, BCS department) by diluting 3 μg of GST-p53 in each well with 0.1 M Na2CO3/NaHCO3 (pH 9.6). The plate was incubated overnight at 4° C. On the second day, the coating buffer was removed, and the plate was washed twice with PBST (1×PBS containing 0.1% Tween-20). The DNA-PK enzyme solution (Invitrogen, #PR9107A; the final DNA-PK concentration: 0.1 μg/mL) was then added. The compounds were serially diluted to the final maximal concentration of 100 nM (3 fold series dilution, a total of 10 doses), and an ATP solution (the final ATP concentration: 20 μM) was added to the plate. Incubate the plate at 25° C. for 1 hour. The plate was washed three times with PBST (1×PBS containing 0.1% Tween-20) and blocked with a solution of PBST and 1% BSA at 4° C. overnight. The third day, the plate was washed four times with PBST (1×PBS containing 0.1% Tween-20). Anti-phospho-p53 primary antibody (cell signaling Technology, #9286, Phospho-p53 (Ser15) (16G8) Mouse mAb) (1/1000) was added to each well. The plate was sealed, incubated 1 h at 37° C., and washed four times with PBST (1×PBS containing 0.1% Tween-20). An HRP-linked secondary antibody (Cell signaling Technology, #7076, Anti-mouse IgG, HRP-linked Antibody) (1/1000) (100 μL) was added to each well. […]
# DNA-dependent protein kinase catalytic subunit, sequence (P78527 whole entry): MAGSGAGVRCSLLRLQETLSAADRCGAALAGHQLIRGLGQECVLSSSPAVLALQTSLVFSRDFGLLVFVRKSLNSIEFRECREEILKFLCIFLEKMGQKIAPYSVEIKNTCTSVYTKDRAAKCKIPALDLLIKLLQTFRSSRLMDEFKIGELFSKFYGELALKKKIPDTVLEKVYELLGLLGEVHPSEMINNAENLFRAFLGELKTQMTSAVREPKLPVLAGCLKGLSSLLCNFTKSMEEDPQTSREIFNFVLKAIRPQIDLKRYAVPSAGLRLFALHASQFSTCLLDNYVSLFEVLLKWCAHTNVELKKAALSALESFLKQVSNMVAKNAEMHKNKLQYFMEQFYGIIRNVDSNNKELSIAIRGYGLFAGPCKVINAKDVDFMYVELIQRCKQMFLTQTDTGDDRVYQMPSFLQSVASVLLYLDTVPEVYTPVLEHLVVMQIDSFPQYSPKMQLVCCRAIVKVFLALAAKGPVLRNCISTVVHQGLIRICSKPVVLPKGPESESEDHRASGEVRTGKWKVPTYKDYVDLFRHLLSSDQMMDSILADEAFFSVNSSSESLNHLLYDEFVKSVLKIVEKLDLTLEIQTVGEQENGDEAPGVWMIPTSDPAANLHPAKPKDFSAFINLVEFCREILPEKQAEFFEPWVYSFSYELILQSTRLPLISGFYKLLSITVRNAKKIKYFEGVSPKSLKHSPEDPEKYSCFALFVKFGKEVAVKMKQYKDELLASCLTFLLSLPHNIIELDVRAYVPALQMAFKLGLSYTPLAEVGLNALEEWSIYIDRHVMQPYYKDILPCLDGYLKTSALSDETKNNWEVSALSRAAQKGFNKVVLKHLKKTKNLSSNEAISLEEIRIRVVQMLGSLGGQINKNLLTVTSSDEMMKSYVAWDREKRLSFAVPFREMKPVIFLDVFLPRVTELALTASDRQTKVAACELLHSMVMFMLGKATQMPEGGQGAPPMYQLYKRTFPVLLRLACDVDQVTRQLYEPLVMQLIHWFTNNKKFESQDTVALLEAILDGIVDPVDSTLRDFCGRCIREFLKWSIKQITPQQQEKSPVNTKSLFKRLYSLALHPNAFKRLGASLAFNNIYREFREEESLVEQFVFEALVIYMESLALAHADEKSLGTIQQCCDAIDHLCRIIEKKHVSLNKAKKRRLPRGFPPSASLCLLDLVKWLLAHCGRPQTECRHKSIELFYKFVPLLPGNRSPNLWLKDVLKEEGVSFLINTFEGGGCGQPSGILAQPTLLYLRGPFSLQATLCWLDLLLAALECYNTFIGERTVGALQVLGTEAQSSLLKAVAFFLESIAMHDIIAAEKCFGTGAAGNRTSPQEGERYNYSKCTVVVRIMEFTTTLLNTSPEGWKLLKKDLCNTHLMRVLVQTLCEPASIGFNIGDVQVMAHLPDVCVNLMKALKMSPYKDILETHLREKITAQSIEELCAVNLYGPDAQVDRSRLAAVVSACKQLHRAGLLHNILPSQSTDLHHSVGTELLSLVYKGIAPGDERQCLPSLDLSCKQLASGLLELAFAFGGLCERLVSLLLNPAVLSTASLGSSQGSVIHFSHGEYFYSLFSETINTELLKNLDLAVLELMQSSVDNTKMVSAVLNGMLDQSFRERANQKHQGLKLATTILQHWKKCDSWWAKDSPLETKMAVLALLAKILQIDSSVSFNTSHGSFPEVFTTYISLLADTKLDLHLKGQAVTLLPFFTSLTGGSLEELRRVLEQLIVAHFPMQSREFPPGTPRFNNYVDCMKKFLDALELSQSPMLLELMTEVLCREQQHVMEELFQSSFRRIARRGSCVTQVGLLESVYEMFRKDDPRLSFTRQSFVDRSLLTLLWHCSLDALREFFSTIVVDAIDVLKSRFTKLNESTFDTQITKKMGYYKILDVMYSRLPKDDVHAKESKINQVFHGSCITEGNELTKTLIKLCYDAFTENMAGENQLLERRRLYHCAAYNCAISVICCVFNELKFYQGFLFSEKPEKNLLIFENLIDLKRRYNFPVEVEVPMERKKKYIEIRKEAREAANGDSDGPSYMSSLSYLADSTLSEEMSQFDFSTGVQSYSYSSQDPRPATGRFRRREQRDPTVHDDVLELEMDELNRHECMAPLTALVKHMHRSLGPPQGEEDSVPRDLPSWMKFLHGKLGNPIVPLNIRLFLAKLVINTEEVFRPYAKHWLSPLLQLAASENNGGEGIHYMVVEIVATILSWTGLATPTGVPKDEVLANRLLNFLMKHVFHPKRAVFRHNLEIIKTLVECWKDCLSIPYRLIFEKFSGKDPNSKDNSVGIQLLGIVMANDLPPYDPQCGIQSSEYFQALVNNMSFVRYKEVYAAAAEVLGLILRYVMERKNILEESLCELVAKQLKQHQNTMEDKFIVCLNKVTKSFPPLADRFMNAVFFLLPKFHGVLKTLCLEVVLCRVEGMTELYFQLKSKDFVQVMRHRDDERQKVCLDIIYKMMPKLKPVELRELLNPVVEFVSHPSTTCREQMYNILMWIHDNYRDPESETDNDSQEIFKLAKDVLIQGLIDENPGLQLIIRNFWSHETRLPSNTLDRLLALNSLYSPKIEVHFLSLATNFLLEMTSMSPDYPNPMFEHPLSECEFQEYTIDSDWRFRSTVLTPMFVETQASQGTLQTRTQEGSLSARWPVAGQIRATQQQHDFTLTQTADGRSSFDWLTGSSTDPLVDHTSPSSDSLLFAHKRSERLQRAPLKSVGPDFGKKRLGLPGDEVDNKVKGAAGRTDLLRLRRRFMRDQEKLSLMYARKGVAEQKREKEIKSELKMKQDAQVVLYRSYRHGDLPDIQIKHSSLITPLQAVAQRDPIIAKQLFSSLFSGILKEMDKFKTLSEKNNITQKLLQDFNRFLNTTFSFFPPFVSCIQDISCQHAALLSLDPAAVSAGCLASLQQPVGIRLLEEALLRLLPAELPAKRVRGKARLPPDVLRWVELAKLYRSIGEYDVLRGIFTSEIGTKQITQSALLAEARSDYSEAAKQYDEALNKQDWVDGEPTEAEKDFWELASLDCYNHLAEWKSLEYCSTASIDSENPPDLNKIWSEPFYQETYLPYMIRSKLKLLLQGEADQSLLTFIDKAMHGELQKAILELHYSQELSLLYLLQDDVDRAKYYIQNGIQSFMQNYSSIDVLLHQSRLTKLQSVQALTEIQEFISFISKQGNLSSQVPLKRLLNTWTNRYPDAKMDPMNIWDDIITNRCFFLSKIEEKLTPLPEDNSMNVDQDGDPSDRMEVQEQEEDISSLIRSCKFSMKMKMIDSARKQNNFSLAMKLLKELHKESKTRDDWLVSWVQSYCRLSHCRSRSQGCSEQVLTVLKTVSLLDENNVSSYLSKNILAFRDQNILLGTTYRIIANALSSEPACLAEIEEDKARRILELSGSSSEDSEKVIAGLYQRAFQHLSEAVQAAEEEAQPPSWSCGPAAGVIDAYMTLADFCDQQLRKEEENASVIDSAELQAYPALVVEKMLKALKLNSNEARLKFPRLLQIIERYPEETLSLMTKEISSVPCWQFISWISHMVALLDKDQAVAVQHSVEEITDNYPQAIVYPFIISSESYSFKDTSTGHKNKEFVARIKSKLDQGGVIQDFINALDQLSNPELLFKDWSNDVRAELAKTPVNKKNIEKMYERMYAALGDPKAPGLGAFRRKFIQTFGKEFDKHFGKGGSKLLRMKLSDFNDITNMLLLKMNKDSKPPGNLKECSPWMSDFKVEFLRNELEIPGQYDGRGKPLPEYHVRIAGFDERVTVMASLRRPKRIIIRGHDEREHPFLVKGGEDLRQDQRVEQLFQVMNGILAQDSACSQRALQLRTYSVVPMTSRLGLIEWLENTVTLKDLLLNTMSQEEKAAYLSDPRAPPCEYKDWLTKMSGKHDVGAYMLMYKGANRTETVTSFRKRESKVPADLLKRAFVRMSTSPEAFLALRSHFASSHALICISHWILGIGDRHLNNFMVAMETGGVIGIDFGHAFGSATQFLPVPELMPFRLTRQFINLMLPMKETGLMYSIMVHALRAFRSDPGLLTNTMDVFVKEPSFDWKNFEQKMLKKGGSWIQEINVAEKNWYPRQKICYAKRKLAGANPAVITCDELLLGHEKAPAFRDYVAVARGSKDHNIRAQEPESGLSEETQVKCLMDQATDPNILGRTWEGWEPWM
# Phosphatidylinositol 4,5-bisphosphate 3-kinase catalytic subunit alpha isoform, sequence (P42336 whole entry, canonical isoform): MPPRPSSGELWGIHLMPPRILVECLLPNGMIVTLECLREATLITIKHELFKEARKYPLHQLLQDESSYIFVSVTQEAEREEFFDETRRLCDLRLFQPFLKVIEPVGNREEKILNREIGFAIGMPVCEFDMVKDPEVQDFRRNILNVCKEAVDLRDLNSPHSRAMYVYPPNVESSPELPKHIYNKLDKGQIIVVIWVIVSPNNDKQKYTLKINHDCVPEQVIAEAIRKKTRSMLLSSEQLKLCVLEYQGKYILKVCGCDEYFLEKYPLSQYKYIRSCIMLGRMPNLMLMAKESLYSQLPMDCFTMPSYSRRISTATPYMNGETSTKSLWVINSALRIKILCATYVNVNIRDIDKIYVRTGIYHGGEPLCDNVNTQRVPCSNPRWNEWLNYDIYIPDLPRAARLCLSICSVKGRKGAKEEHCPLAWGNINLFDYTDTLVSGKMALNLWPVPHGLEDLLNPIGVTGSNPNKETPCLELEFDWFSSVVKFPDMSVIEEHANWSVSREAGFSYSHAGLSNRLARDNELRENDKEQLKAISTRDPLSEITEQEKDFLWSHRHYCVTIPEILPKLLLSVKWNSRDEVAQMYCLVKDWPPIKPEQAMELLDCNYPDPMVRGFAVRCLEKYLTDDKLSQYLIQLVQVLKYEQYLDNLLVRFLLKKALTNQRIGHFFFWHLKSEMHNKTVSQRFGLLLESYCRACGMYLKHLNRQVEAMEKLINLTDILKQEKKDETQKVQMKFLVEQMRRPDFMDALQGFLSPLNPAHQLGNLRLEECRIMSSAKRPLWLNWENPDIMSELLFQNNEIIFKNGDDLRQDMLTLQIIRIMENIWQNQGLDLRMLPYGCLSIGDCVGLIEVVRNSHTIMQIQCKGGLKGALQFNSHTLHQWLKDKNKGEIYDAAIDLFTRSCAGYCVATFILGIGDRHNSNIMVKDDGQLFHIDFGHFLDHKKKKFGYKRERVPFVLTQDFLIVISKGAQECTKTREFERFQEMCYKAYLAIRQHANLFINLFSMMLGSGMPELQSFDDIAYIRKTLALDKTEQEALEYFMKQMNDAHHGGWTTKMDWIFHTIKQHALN
SMILES,IC50 [1],IC50 [2],IC50 [3]
"CC(C)NCCOC1=NCC(C2=CC3C4=C(C=NC3CC2F)N(C)C(=O)C42CCC2)C=C1NS(=O)(=O)C(C)C (stereo unspecified) [US20250268873, Compound 568]",54 nM,18 nM,0.79 nM
"CCS(=O)(=O)NC1=CC(C2=CC3C4=C(C=NC3CC2F)N(C)C(=O)C42CCC2)CN=C1OCCNC(C)C (stereo unspecified) [US20250268873, Compound 570]",55 nM,21 nM,0.63 nM
